{"source": "patent US8445533B2", "about": "“Andrographolide derivatives to treat viral infections” (Cornell Research Foundation, Inc., priority 2004, dated 2013)", "key": {"[1]": {"test_system": "HCV replicon-bearing cells (subgenomic 1a)", "test": "MTT cytotoxicity in HCV replicon cells, subgenomic 1a", "assay_type": "cell-based, human", "conditions": "4 days", "method": "(§1) HCV replicon—SEAP (secreted alkaline phosphatase) cell lines have been described previously. Low passage cell stocks of cell lines stored frozen (−160° C.) were used in the assays. Serial dilutions of test compounds were made from initial stocks and each concentration plated in 96-well plates. Low passage HCV replicon-bearing cells were then trypsinized, counted and seeded into the wells. The plates were incubated at 37° C. in a CO2 incubator for 4 days. The culture supernatant was then removed from each well and heat inactivated for 30 min at 65° C. SEAP activity was measured and EC50 values calculated by comparing SEAP present in drug-treated and untreated wells. Cytotoxicity produced by compounds during screening was evaluated by MTT assay at the end of the incubation period."}, "[2]": {"test_system": "HCV replicon subgenomic 1a", "test": "HCV replicon SEAP reporter assay, subgenomic 1a", "assay_type": "cell-based, hepatitis C virus", "conditions": "4 days", "method": "as §1\n(§2) Growth medium from each well was aspirated prior to the addition of lysis solution followed by vigorous pipetting. Each lysate was processed using DNase I treatment. Total RNA was eluted into orgainic carbon-free water and converted into cDNA enzymatically."}, "[3]": {"test_system": "HCV replicon-bearing cells (subgenomic 1b Strain N)", "test": "MTT cytotoxicity in HCV replicon cells, subgenomic 1b Strain N", "assay_type": "cell-based, human", "conditions": "4 days", "method": "as §1"}, "[4]": {"test_system": "HCV replicon subgenomic 1b Strain N", "test": "HCV replicon SEAP reporter assay, subgenomic 1b Strain N", "assay_type": "cell-based, hepatitis C virus", "conditions": "4 days", "method": "as §1, §2"}, "tumor cell lines": {"test_system": "tumor cell lines", "conditions": "cited from earlier work"}, "proprotein convertase-1": {"test_system": "proprotein convertase-1", "conditions": "cited from earlier work"}, "proprotein convertase-7": {"test_system": "proprotein convertase-7", "conditions": "cited from earlier work"}, "isolated rat hepatocytes": {"test_system": "isolated rat hepatocytes", "conditions": "ex vivo isolated rat hepatocytes; cited from earlier work"}, "funin": {"molecular_target": "funin (Homo sapiens, UniProt P09958)", "sequence (P09958 108-794)": "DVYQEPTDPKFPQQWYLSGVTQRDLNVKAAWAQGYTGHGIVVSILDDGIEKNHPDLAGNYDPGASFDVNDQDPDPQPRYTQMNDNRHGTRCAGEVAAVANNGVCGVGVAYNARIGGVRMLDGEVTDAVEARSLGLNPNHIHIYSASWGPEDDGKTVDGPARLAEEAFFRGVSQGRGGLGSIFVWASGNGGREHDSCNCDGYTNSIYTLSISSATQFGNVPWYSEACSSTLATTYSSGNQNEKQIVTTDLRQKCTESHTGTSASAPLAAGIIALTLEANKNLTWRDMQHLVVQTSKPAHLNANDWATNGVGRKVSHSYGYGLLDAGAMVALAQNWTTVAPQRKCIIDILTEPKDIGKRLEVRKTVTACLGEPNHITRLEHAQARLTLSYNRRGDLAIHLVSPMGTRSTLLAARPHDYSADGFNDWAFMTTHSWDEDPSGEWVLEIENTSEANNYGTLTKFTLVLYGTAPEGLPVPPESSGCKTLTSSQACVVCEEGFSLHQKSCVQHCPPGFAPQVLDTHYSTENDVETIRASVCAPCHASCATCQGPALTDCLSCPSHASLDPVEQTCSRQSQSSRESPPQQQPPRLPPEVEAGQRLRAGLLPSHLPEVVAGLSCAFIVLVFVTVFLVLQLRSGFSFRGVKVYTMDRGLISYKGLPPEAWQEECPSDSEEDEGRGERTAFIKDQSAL", "conditions": "cited from earlier work"}, "[5]": {"test_system": "P388 lymphocytic leukemia", "conditions": "cited from earlier work"}, "KB": {"test_system": "KB", "conditions": "cited from earlier work"}, "[6]": {"test_system": "cytopathogenic isolate of BVDV", "test": "BVDV antiviral assay in woodchuck hepatic cell line WCH-8", "description": "(§3) Woodchuck primary hepatocyte cultures and hepatic cell lines were inoculated with a cytopathogenic isolate of BVDV."}, "in vitro": {"test": "in vitro", "conditions": "woodchuck", "description": "as §3"}, "[7]": {"test_system": "cytopathogenic isolate of BVDV", "test": "BVDV viral yield assay in woodchuck primary hepatocytes", "description": "as §3"}, "HIV-1 (IIIB)": {"test_system": "HIV-1 (IIIB)", "conditions": "Chang et al. 1991; cited from earlier work"}, "WCH-8 cells": {"test_system": "WCH-8 cells", "test": "Cytotoxicity in WCH-8 cells", "description": "as §3"}, "cpBVDV isolate NADL": {"test_system": "cpBVDV isolate NADL", "test": "BVDV antiviral assay in NCL bovine uterine cell line (viral-induced cell killing, viral yield)", "conditions": "Example 2B", "method": "Derivatives of andrographolide were tested in an in vitro assay which measures the antiviral potential against a cytopathogenic isolate of BVDV in a permissive bovine uterine cell line.\nThe capacity to measure the effectiveness of compounds to reduce BVDV replication in vitro provides a system for preclinical assessment of potential drugs for treatment of viral infection and for analyzing possible mechanisms of action.\nCell lines were incubated in a humid atmosphere of 5% CO2 at 37° C. Cells were passaged by dissociation of the monolayer with a solution of trypsin-EDTA (Life Technologies), diluted in culture medium, and split 1:5 to new culture flasks.\nA method to measure visible cell numbers involved staining with methylene blue (Sigma, St. Louis, Mo.) and reading the absorbance of the stain in solution after elution from the cells. […] The methylene blue staining solution was removed from the cultures and the culture plates were rinsed in several volumes of H^2O. The culture plates were allowed to air dry; this was followed by elution of the methylene blue stain from the fixed cells by incubation at controlled room temperature in a solution of PBS/50% ethanol and 1% acetic acid for 1 hour, with agitation. The absorbance of the methylene blue dye in solution was measured by an ELISA plate reader (Model EL311; Bio-Tek Instruments, Inc., Winooski, Vt.) at 630 nm. In all experiments described, calculation of cell numbers for each experimental data point was expressed as the average of three wells per experimental treatment (dilution, titer, or antiviral concentration).\nThe NCL cell line was grown to confluence and passaged to 96 well microtiter plates (Microtest™ 96; Becton Dickinson Labware, Franklin Lakes, N.J.), at a density of 2×10^4 cells/well (0.34 cm^2) and incubated for 1 hour to allow cell attachment. After attachment, the cells of one-half of each microtiter plate were inoculated with a cpBVDV stock diluted to yield a multiplicity of infection (m.o.i.) of 0.01 TCID50 and incubated for 3-6 hours to allow viral attachment and penetration. Following this incubation period, the inoculum was removed and replaced with fresh growth medium.\nThree quarters of both cpBVDV infected and uninfected cells were grown in the presence of antiviral compound. The remaining quarter of the microassay plate served as positive (cpVDV infected) and negative (uninfected) control wells. The medium was changed daily and cell killing was measured by the methylene blue assay 3 days post-infection with BVDV.\nThe culture medium was collected on day 3 post-infection and the reduction in viral yield after antiviral treatment was determined. Supernatant collected from experimental wells was serially diluted ten-fold and used to infect newly prepared NCL cells. the end-point titer, the last dilution at which complete cell killing was evident, was determined in a similar 96 well format using the methylene blue assay for cell killing 5 days after infection.\nCell killing due either to viral infection or to drug cytotoxicity was calculated for each experimental data point and plotted. Regression analysis (curve fitting) was performed with SigmaPlot4.0 (Jandel Sci, San Rafael, Calif.) using the Regression Wizard library of equations which best fit the collected data."}, "[8]": {"test_system": "woodchuck primary hepatocytes", "test": "Cytotoxicity in woodchuck primary hepatocytes", "description": "as §3"}, "uninfected NCL cells": {"test_system": "uninfected NCL cells", "test": "Cytotoxicity toward uninfected NCL cells (methylene blue assay)", "assay_type": "cell-based, bovine", "conditions": "Example 2B", "protocol": "A method to measure visible cell numbers involved staining with methylene blue (Sigma, St. Louis, Mo.) and reading the absorbance of the stain in solution after elution from the cells. […] The methylene blue staining solution was removed from the cultures and the culture plates were rinsed in several volumes of H^2O. […] The absorbance of the methylene blue dye in solution was measured by an ELISA plate reader (Model EL311; Bio-Tek Instruments, Inc., Winooski, Vt.) at 630 nm. In all experiments described, calculation of cell numbers for each experimental data point was expressed as the average of three wells per experimental treatment (dilution, titer, or antiviral concentration).\nThree quarters of both cpBVDV infected and uninfected cells were grown in the presence of antiviral compound. […] The medium was changed daily and cell killing was measured by the methylene blue assay 3 days post-infection with BVDV.\nCell killing due either to viral infection or to drug cytotoxicity was calculated for each experimental data point and plotted. […]"}}, "note": "Like-named read-outs stand apart in the source and are kept apart here."}
{"compound": "C[C@@]1(O)[C@H](O)[C@@H](CO)O[C@H]1n1ccc(N)nc1=O", "note": "[2′-MeC, B-D-2′-methyl-cytidine]", "values": [{"measurement": "IC50", "setting": "[1]", "value": "> 100", "unit": "µM"}, {"measurement": "EC50", "setting": "[2]", "value": 61.6, "unit": "µM"}, {"measurement": "IC50", "setting": "[3]", "value": "> 100", "unit": "µM"}, {"measurement": "EC50", "setting": "[4]", "value": 25.1, "unit": "µM"}]}
{"compound": "C=C1CCC2[C@](C)(CC[C@@H](O)[C@@]2(C)CO)C1/C=C/C1=CCOC1=O", "note": "(some centres unmarked) [14-deoxy-11,12-didehydroandrographolide]", "values": [{"measurement": "cytotoxic activity", "setting": "tumor cell lines", "value": "no cytotoxic activity"}]}
{"compound": "C=C1CC[C@@H]2[C@](C)(CO)[C@H](O)CC[C@@]2(C)[C@@H]1C/C=C1/C(=O)OC[C@H]1O", "note": "[Andrographolide]", "values": [{"measurement": "enzyme inhibition", "setting": "proprotein convertase-1", "value": "relatively little enzyme inhibition"}, {"measurement": "enzyme inhibition", "setting": "proprotein convertase-7", "value": "relatively little enzyme inhibition"}, {"measurement": "protective activity against paracetamol-induced toxicity", "setting": "isolated rat hepatocytes", "value": "protective activity"}, {"measurement": "enzyme inhibition", "setting": "funin", "value": "relatively little enzyme inhibition"}, {"measurement": "cytotoxic activity", "setting": "[5]", "value": "significant cytotoxic activity"}, {"measurement": "cytotoxic activity", "setting": "KB", "value": "significant cytotoxic activity"}]}
{"compound": "C=C1CC[C@@H]2[C@](C)(CO[C@@H]3O[C@H](CO)[C@@H](O)[C@H](O)[C@H]3O)CCC[C@@]2(C)[C@@H]1CCC1=CCOC1=O", "note": "[neoandrographolide]", "values": [{"measurement": "cytotoxic activity", "setting": "tumor cell lines; tumor cell lines", "value": "no cytotoxic activity"}]}
{"compound": "NC(=O)c1ncn([C@@H]2O[C@H](CO)[C@@H](O)[C@H]2O)n1", "note": "[ribavirin, reference compound]", "values": [{"measurement": "EC50", "setting": "[6]; Bovine viral diarrhea virus isolates and strains, in Marmota monax, read-out: ckEC50", "value": 0.27, "unit": "µg/mL"}, {"measurement": "CC50", "setting": "in vitro", "value": 0.35, "unit": "µg/mL"}, {"measurement": "tEC90", "setting": "[7]", "value": 2.9, "unit": "µg/mL"}]}
{"compound": "dehydroandrographolide succinic acid monoester [DASM]", "values": [{"measurement": "minimal concentration inhibitory to HIV-1 (IIIB)", "setting": "HIV-1 (IIIB)", "value": "1.6 to 3.1", "unit": "pg/mL"}]}
{"compound": "interferon-α", "values": [{"measurement": "ckEC50", "setting": "[6]; WCH-8 cells", "value": 288, "unit": "ng/mL"}, {"measurement": "tEC90", "setting": "[6]; WCH-8 cells", "value": 64, "unit": "ng/mL"}, {"measurement": "CC50", "setting": "WCH-8 cells", "value": "≧1000 ng/ml"}, {"measurement": "cytotoxicity, result in words", "setting": "WCH-8 cells; up to a dose of 1000 ng/ml", "value": "No cytotoxicity was observed"}, {"measurement": "concentration range of reduction in viral-induced cell killing", "setting": "cpBVDV isolate NADL", "value": "0.1 to 1000", "unit": "ng/mL"}, {"measurement": "maximal reduction in viral-induced cell killing", "setting": "cpBVDV isolate NADL", "value": 80, "unit": "%"}, {"measurement": "reduction in viral yields", "setting": "cpBVDV isolate NADL", "value": 2, "unit": "logs"}, {"measurement": "S.I. (CC50/EC90)", "setting": "cpBVDV isolate NADL; bovine uterine cell line", "value": 6667}, {"measurement": "ckEC50", "setting": "cpBVDV isolate NADL; bovine uterine cell line", "value": 0.0074, "unit": "ng/mL"}, {"measurement": "tEC90", "setting": "cpBVDV isolate NADL; bovine uterine cell line", "value": 0.15, "unit": "ng/mL"}, {"measurement": "tEC90", "setting": "cpBVDV isolate NADL; bovine uterine cell line, listed as IFN-α", "value": 150, "unit": "ng/mL"}, {"measurement": "CC50", "setting": "[8]", "value": "≧1000 ng/ml"}, {"measurement": "cytotoxicity, result in words", "setting": "[8]; over the range tested", "value": "no cytotoxicity was observed over the range tested"}, {"measurement": "CC50", "setting": "uninfected NCL cells; bovine uterine cell line", "value": "≧1000 ng/ml"}, {"measurement": "cytotoxicity, result in words", "setting": "uninfected NCL cells; over the range tested", "value": "did not exhibit cytotoxicity over the range tested"}, {"measurement": "tEC90", "setting": "[7]", "value": 0.825, "unit": "µg/mL"}]}
